{
  "source": "patent US20240130371A1",
  "about": "“ENVIRONMENTAL PROTECTION SYSTEMS AND METHODS OF GREENHOUSE GAS CAPTURE VIA CALCIUM HYDROXIDE” (priority 2021, published 2024)",
  "origin": "cited, not measured here",
  "conditions": "common coronavirus killers",
  "data": [
    {"smiles": "CC(C)O", "note": "[isopropyl alcohol]", "values": [
      {"measurement": "pH", "value": "around 8"}
    ]}
  ]
}
